Columns and labels:
[1] = Dose–response curve of purified […] with R-β-phenylalanine; format: biochemical
Protocol: (§1) Fig. 4 Engineering ligand specificity of GrsA-PheA for generating […]s. a The selectivity-conferring code of Phe and Leu A domains. b–f Dose–response curve of purified […]s with increasing concentrations of ligands in 100 mM Tris-HCl buffer (pH=7.5). All data shown are means ± S.D. (n = 3 biologically independent samples). g A series of […] reactions was tested to show the […]’s specificity with 20 proteinogenic amino acids. The values on the heatmap represent the ΔF/F0 value normalized to each […]’s maximal ΔF/F0 value ((ΔF/F0)/maximal ΔF/F0). The concentrations of 20 amino acids were 100 μM. The color indicates the average value of three independent biological replicates after 15 min. All data shown are means ± S.D. (n = 3 biologically independent samples). Source data are provided as a Source data file.
(§2) The study conducted dose–response curve, substrate specificity, and fluorescent spectrum analyses in 100-mM Tris buffer (pH = 7.5), while pH stability experiments were performed in 100-mM Tris buffer at three different pH values (6.5, 7.5, and 8.5) at room temperature. […] protein at a concentration of 0.75 μM, various small molecule concentrations, 1 mM ATP, and 2.5 mM MgCl2 were used in the experiments. Fluorescent signals were detected using a Microplate Reader (Synergy H4, Bio Tek) at an excitation/emission wavelength of 460 nm/510 nm or 480 nm/510 nm. The dose-response curve was determined immediately after the addition of the analyte. The total duration of the measurement was 15 min, with readings taken at one-minute intervals. The dose-response curve was plotted using the fluorescence values obtained after achieving stability in the fluorescence signal. The dose-response curves were fitted using the logistic model LOGISTIC5 available in Origin 2021, which could provide a more adequate fit to asymmetric dose-response data[62],[63]. Excitation spectra were scanned from 300 to 540 nm with a step size of 5 nm, and the emission wavelength was set to 560 nm. Emission spectra were scanned from 470 to 700 nm with a step size of 5 nm, and the excitation wavelength was set to 450 nm. The thermal stability of […] was analyzed using the UNcle multifunctional protein stability analysis system. Measurements were performed in 20 mM MOPS buffer with 2 mM DTT at a sample concentration of 1 mg/mL. Absolute fluorescence quantum yields were measured using an absolute photoluminescence quantum yield spectrometer (FS5, Edinburgh).

[2] = Substrate (ligand) specificity of […]s; format: biochemical; details: Supplementary Fig. 3 c; substrate specificity
How it was run: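 Purified biosensor protein (0.75 μM) with ligand, 1 mM ATP and 2.5 mM MgCl2 in 100 mM Tris-HCl, pH 7.5, at room temperature. Fluorescence (Ex 460 or 480/Em 510 nm) read each minute for 15 min. Dose-response fitted by 5-parameter logistic; specificity tested with 20 amino acids at 100 μM as normalized ΔF/F0.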

[3] = biological target: T1, GECFINDER-His1 (Bacillus licheniformis, UniProt O68008); experiment: Fluorescence dose-response of purified cpEGFP sensors (0.75 uM) in 100 mM Tris-HCl pH 7.5, room temperature, 1 mM ATP, 2.5 mM MgCl2; excitation 400, 460 or 480 nm by sensor, emission 510 nm; logistic five-parameter fit.; format: biochemical; details: n = 3
T1 construct: gene bacC; BacC-HisA-PCP; cpEGFP inserted, linkers GA-HC
Protocol: (§3) Fig. 3 Dose–response curves and fluorescence spectrums of […]s. a, c, e, g, i, k Dose–response curve of purified […]s with increasing concentrations of ligand in 100 mM Tris-HCl buffer (pH=7.5). The normalized ΔF/F0 value increased after ligand binding. All data shown are mean ± S.D. (n = 3 biologically independent samples). b, d, f, h, j, l The fluorescence spectra of […]s changed as the ligand concentration increased. All data shown are mean ± S.D. (n = 3 biologically independent samples). Source data are provided as a Source data file.
as §2

[4] = biological target: T2, GECFINDER-His2 (Bacillus licheniformis, UniProt O68008); experiment: as above; format: biochemical; details: n = 3
T2 construct: gene bacC; BacC-HisA-PCP; cpEGFP inserted, linkers GG-PV
Protocol: as §3, §2

[5] = biological target: GECFINDER-SβF; experiment: Fluorescence dose-response of purified binding-pocket-engineered sensors (0.75 uM) in 100 mM Tris-HCl pH 7.5, room temperature, 1 mM ATP, 2.5 mM MgCl2, excitation 460 or 480 nm, emission 510 nm; logistic five-parameter fit.; format: biochemical; details: n = 3
Protocol: as §1, §2

[6] = biological target: T3, GECFINDER-Phe3 (Aneurinibacillus migulanus, UniProt P0C061); experiment: Fluorescence dose-response of purified cpEGFP sensors (0.75 uM) in 100 mM Tris-HCl pH 7.5, room temperature, 1 mM ATP, 2.5 mM MgCl2; excitation 400, 460 or 480 nm by sensor, emission 510 nm; logistic five-parameter fit.; format: biochemical; details: n = 3
T3 construct: gene grsA; GrsA-PheA-PCP; cpEGFP inserted in hinge B, linkers VF-QS
T3 sequence (P0C061 1-617): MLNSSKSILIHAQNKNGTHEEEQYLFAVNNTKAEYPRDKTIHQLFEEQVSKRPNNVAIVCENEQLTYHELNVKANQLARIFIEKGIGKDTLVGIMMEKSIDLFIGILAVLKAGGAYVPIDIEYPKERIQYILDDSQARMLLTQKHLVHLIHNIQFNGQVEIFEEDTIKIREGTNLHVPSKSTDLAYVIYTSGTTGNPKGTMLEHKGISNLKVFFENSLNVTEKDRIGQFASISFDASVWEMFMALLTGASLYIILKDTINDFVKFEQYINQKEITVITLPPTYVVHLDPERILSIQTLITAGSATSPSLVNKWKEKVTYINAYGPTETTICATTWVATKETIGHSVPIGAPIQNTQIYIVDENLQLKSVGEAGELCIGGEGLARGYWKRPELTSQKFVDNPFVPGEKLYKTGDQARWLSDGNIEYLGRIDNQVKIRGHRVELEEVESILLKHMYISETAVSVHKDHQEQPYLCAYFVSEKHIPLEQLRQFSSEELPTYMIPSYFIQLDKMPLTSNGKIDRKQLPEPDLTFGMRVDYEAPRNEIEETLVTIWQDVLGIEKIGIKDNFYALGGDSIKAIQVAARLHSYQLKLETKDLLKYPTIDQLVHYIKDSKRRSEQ
Protocol: as §3, §2

[7] = biological target: T4, GECFINDER-Tyr (Aneurinibacillus migulanus, UniProt P0C061, W239S); experiment: Fluorescence dose-response of purified binding-pocket-engineered sensors (0.75 uM) in 100 mM Tris-HCl pH 7.5, room temperature, 1 mM ATP, 2.5 mM MgCl2, excitation 460 or 480 nm, emission 510 nm; logistic five-parameter fit.; format: biochemical; details: n = 3
T4 construct: gene grsA
Protocol: as §1, §2

[8] = biological target: T5, GECFINDER-Glu (Bacillus subtilis, UniProt P39845); experiment: Fluorescence dose-response of purified cpEGFP sensors (0.75 uM) in 100 mM Tris-HCl pH 7.5, room temperature, 1 mM ATP, 2.5 mM MgCl2; excitation 400, 460 or 480 nm by sensor, emission 510 nm; logistic five-parameter fit.; format: biochemical; details: n = 3
T5 construct: gene ppsA; PpsA-GluA-PCP; cpEGFP inserted, linkers HS-WL
Protocol: as §3, §2

[9] = Response of purified […] to proline; format: biochemical
Protocol: as §3, §2

[10] = Fluorescence spectra / excitation wavelength scan of […]s; format: physicochemical; details: Wavelength 300 nm
Protocol: Fig. 3 Dose–response curves and fluorescence spectrums of […]s. a, c, e, g, i, k Dose–response curve of purified […]s with increasing concentrations of ligand in 100 mM Tris-HCl buffer (pH=7.5). […] All data shown are mean ± S.D. (n = 3 biologically independent samples). Source data are provided as a Source data file.
as §2

[11] = biological target: T6, GECFINDER-Ile1 (Bacillus licheniformis, UniProt O68006); experiment: Fluorescence dose-response of purified cpEGFP sensors (0.75 uM) in 100 mM Tris-HCl pH 7.5, room temperature, 1 mM ATP, 2.5 mM MgCl2; excitation 400, 460 or 480 nm by sensor, emission 510 nm; logistic five-parameter fit.; format: biochemical; details: n = 3
T6 construct: gene bacA; BacA-IleA-PCP; cpEGFP inserted, linkers VY-CA
Protocol: as §3, §2

[12] = biological target: T7, GECFINDER-Ile2 (Bacillus licheniformis, UniProt O68006); experiment: as above; format: biochemical; details: n = 3
T7 construct: gene bacA; BacA-IleA-PCP; cpEGFP inserted, linkers RY-PG
Protocol: as §3, §2

[13] = biological target: T8, GECFINDER-Ile3 (Bacillus licheniformis, UniProt O68006); experiment: as above; format: biochemical; details: n = 3
T8 construct: gene bacA; BacA-IleA-PCP; cpEGFP inserted, linkers VY-LS
Protocol: as §3, §2

N[C@H](CC(=O)O)c1ccccc1 [R-β-Phe]
AVE, dose-response Fig. 4 f ([1]; substrate R-β-Phe 0.0001 μM): -0.0001175 | AVE, dose-response Fig. 4 f ([1]; substrate R-β-Phe 0.001 μM): -0.003533 | AVE, dose-response Fig. 4 f ([1]; substrate R-β-Phe 0.01 μM): -3.814e-5 | AVE, dose-response Fig. 4 f ([1]; substrate R-β-Phe 0.1 μM): 0.008066 | AVE, dose-response Fig. 4 f ([1]; substrate R-β-Phe 1 μM): 0.06811 | AVE, dose-response Fig. 4 f ([1]; substrate R-β-Phe 5 μM): 0.06226 | AVE, dose-response Fig. 4 f ([1]; substrate R-β-Phe 10 μM): 0.1204 | AVE, dose-response Fig. 4 f ([1]; substrate R-β-Phe 50 μM): 0.3026 | AVE, dose-response Fig. 4 f ([1]; substrate R-β-Phe 100 μM): 0.3923 | AVE, dose-response Fig. 4 f ([1]; substrate R-β-Phe 500 μM): 0.5534 | AVE, dose-response Fig. 4 f ([1]; substrate R-β-Phe 1000 μM): 0.5949 | AVE, dose-response Fig. 4 f ([1]; substrate R-β-Phe 2000 μM): 0.5892 | fluorescence response of GECFINDER to each substrate, AVE of 3 repeats [2]: 0.4936

N[C@@H](Cc1c[nH]cn1)C(=O)O [His, histidine]
EC50 [3]: 10.4 ± 4.74 µM | EC50 [4]: 13.2 ± 4.26 µM

N[C@H](CC(=O)O)c1ccccc1 [R-β-Phe, R-β-phenylalanine]
EC50 [5]: 54.6 ± 7.66 µM

N[C@@H](Cc1ccc(O)cc1)C(=O)O [Tyr, tyrosine]
EC50 [6]: 225 ± 17.9 µM | EC50 [7]: 89.8 ± 6.71 µM

N[C@@H](CCC(=O)O)C(=O)O [Glu, glutamic acid]
EC50 [8]: 42.9 ± 3.93 µM

O=C(O)[C@@H]1CCCN1 [Pro]
Dose-response, AVE of Repeat 1-3 (Fig. 3 g) ([9]; Pro 0.0002 μM): -7.17e-17 | Dose-response, AVE of Repeat 1-3 (Fig. 3 g) ([9]; Pro 0.002 μM): 0.0174 | Dose-response, AVE of Repeat 1-3 (Fig. 3 g) ([9]; Pro 0.02 μM): 0.02154 | Dose-response, AVE of Repeat 1-3 (Fig. 3 g) ([9]; Pro 0.2 μM): 0.03875 | Dose-response, AVE of Repeat 1-3 (Fig. 3 g) ([9]; Pro 2 μM): 0.04783 | Dose-response, AVE of Repeat 1-3 (Fig. 3 g) ([9]; Pro 20 μM): 0.05475 | Dose-response, AVE of Repeat 1-3 (Fig. 3 g) ([9]; Pro 100 μM): 0.06466 | Dose-response, AVE of Repeat 1-3 (Fig. 3 g) ([9]; Pro 200 μM): 0.07263 | Dose-response, AVE of Repeat 1-3 (Fig. 3 g) ([9]; Pro 500 μM): 0.09025 | Dose-response, AVE of Repeat 1-3 (Fig. 3 g) ([9]; Pro 1000 μM): 0.09711 | Dose-response, AVE of Repeat 1-3 (Fig. 3 g) ([9]; Pro 2000 μM): 0.09414 | Dose-response, AVE of Repeat 1-3 (Fig. 3 g) ([9]; Pro 4000 μM): 0.08171 | fluorescence response of GECFINDER to each substrate, AVE of 3 repeats [2]: -0.002038 | Wavelength scan, AVE of Repeat 1-3 (Fig. 3 h) ([10]; 0.0002 μM Pro): 1526 | Wavelength scan, AVE of Repeat 1-3 (Fig. 3 h) ([10]; 20 μM Pro): 1565 | Wavelength scan, AVE of Repeat 1-3 (Fig. 3 h) ([10]; 2000 μM Pro): 1543.33

N[C@@H](CC(=O)O)c1ccccc1 [S-β-Phe, S-β-phenylalanine]
EC50 [6]: 13.6 ± 1.28 µM | EC50 [5]: 7.4 ± 0.45 µM

CC[C@H](C)[C@H](N)C(=O)O [Ile, isoleucine]
EC50 [11]: 161 ± 32.1 µM | EC50 [12]: 221 ± 66.3 µM | EC50 [13]: 186 ± 61 µM

From article PMC10590383, “Repurposing conformational changes in ANL superfamily enzymes to rapidly generate biosensors for organic and amino acids” (Nature Communications, 2023)
